US7399607B2, “Fluorescence polarization assays for determining clostridial toxin activity” (priority 2004, dated 2008)

system: BoNT/A; details: cited from earlier work

Q: Which “Relative Rate” value does the source give for SNKTRIDEAAQRATKML [Peptide N10A] here?
A: 0.06

Q: Which “Relative Rate” value does the source give for SNKTRIDEANARATKML [Peptide Q11A] here?
A: 0.19

Q: For SNKTRIDEANBRATKML [Peptide Q11B], which “Relative Rate” value is on record?
A: 0.25

Q: With SNKTRIDEANNRATKML [Peptide Q11N] as the substance, how does the “Relative Rate” value read?
A: 0.66

Q: With SNKTRIDEANQRABKML [Peptide T14B] as the substance, how does the “Relative Rate” value read?
A: 1.20

Q: For SNKTRIDEANQRASKML [Peptide T14S], which “Relative Rate” value is on record?
A: 0.26

Q: For SNKTRIDEANQRATAML [Peptide K15A], which “Relative Rate” value is on record?
A: 0.12

Q: For SNKTRIDEANQRATK [[1-15]], which “Relative Rate” value is on record?
A: 0.03

Q: With SNKTRIDEANQRATKAL [Peptide M16A] as the substance, how does the “Relative Rate” value read?
A: 0.38

Q: With SNKTRIDEANQRATKM [[1-16]] as the substance, how does the “Relative Rate” value read?
A: 1.17

Q: With SNKTRIDEANQRATKML [[1-17]] as the substance, how does the “Relative Rate” value read?
A: 1.00

Q: For SNKTRIDEANQRATKXL [Peptide M16X], which “Relative Rate” value is on record?
A: 1.20

Q: For SNKTRIDEANQRBTKML [Peptide A13B], which “Relative Rate” value is on record?
A: 0.79

Q: With SNKTRIDEBNQRATKML [Peptide A9B] as the substance, how does the “Relative Rate” value read?
A: 0.38

Q: With SNKTRIDQANQRATKML [Peptide E8Q] as the substance, how does the “Relative Rate” value read?
A: 2.08

Q: For SNKTRINEANQRATKML [Peptide D7N], which “Relative Rate” value is on record?
A: 0.23

system: BoNT/A; type: biochemical; details: not given

Q: Which depolarization during proteolysis does the source give for “GFP-SNAP25(134-206)-His6-C-Alexa Fluor® 594” here?
A: approximately 20 mP
